The target of test [1] is T1, glutathione-S-transferase (GST) tagged LXRbeta LBD (ligand binding domain) (Homo sapiens, UniProt P55055).
T1 construct: purchased Invitrogen pv4658.pps
T1 sequence (P55055 222-460 limits assumed): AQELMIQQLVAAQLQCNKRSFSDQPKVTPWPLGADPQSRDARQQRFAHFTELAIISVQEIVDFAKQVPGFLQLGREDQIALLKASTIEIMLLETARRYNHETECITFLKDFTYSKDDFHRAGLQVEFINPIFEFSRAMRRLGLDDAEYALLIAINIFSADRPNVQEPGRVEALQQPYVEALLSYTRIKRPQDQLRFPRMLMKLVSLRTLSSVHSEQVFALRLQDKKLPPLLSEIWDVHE
Kind of test: LanthaScreen TR-FRET Liver X Receptor Coactivator Assay, LXR beta-LBD. The format is biochemical. To be noted: for Emax: read-out: LXR beta activity at max dose (%) (Emax); for EC50: potency (Inflection Point) of co-activator recruitment, TR-FRET, read-out: LXR beta IP. On the procedure:
(§1) While running the LanthaScreen™ TR-FRET Liver X Receptor Coactivator Assay, LXR alpha-LBD or LXR beta-LBD was added to ligand test compounds followed by addition of a mixture of a fluorescein-labelled coactivator peptide and terbium-conjugated anti-GST antibody. After an incubation period at room temperature, TR-FRET (time-resolved fluorescence resonance energy transfer) was measured using a filter-based instrument capable of TR-FRET, e.g. PerkinElmer Envision.

Test [2] concerns the target T2, glutathione-S-transferase (GST) tagged LXRalpha LBD (ligand binding domain) (Homo sapiens, UniProt Q13133).
T2 construct: purchased Invitrogen pv4655
T2 sequence (Q13133 209-447 limits assumed): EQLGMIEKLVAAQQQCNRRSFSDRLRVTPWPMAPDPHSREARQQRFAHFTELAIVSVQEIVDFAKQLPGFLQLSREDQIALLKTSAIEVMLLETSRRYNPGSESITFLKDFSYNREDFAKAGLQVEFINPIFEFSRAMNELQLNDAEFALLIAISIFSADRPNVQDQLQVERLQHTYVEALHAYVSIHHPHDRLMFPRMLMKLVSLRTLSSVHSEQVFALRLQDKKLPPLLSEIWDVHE
Kind of test: LanthaScreen TR-FRET Liver X Receptor Coactivator Assay, LXR alpha-LBD. The format is biochemical. To be noted: for Emax: read-out: LXR alpha activity at max dose (%) (Emax); for EC50 / LXR alpha IP (nM): potency (Inflection Point) of co-activator recruitment, TR-FRET; for EC50: read-out: LXR alpha IP. Here is the method: as §1

The mark [3] stands for this setting: efficacy in relation to reference dual agonist T1317.

These results are taken from patent publication US10239849B2 (Merck Sharp & Dohme Corp., priority 2015, dated 2019).

On to `CN(C)C(=O)c1ccc(-c2cnc(N3CCN(S(=O)(=O)C4CCCCC4)CC3)c(C#N)c2)cc1Cl` [Example 1-7, 2-chloro-4-{5-cyano-6-[4-(cyclohexylsulfonyl)piperazin-1-yl]pyridin-3-yl}-N,N-dimethylbenzamide], for which the Emax in test [1] (setting [3]) is 79%; in test [2] (setting [3]), 39%. The EC50 in test [1] turned out to be 0.337 µM; in test [2], 14.2 µM.
On the same counts, the results for `COc1ccc(COC(=O)N2CCN(c3ncc(-c4ccc(C(=O)N(C)C)c(Cl)c4)cc3C#N)CC2)cc1` [Example 3-8, 4-methoxybenzyl 4-{5-[3-chloro-4-(dimethylcarbamoyl)phenyl]-3-cyanopyridin-2-yl}piperazine-1-carboxylate] are 65%, 65%, 0.21 µM and 24.6 µM.
Consider `CN(Cc1cnn(C)c1)C(=O)c1ccc(-c2cnc(N3CCN(C(=O)OC(C)(C)C)CC3)c(C#N)c2)cc1Cl` [Example 5-22, tert-butyl 4-[5-(3-chloro-4-{methyl[(1-methyl-1H-pyrazol-4-yl)methyl]carbamoyl}phenyl)-3-cyanopyridin-2-yl]piperazine-1-carboxylate], for which the maximal effect (Emax) in test [1] (setting [3]) is 65%; in test [2] (setting [3]), 34%. In addition, the EC50 in test [1] was 0.382 µM; in test [2] it was 9.7 µM.
As for `CN(C)C(=O)c1ccc(-c2cnc(N3CCN(C(=O)OC(C)(C)C)CC3)c(C#N)c2)cc1C1CC1` [Example 9-4, tert-butyl 4-{3-cyano-5-[3-cyclopropyl-4-(dimethylcarbamoyl)phenyl]pyridin-2-yl}piperazine-1-carboxylate], the Emax in test [1] (setting [3]) came out at 68%; in test [2] (setting [3]), 39%. Moreover, the EC50 in test [1] turned out to be 0.676 µM; in test [2], 4.63 µM.
As for `CN(CCc1ccccc1)C(=O)c1ccc(-c2cnc(N3CCN(C(=O)OC(C)(C)C)CC3)c(C#N)c2)cc1Cl` [Example 5-26, tert-butyl 4-(5-{3-chloro-4-[methyl(2-phenylethyl)carbamoyl]phenyl}-3-cyanopyridin-2-yl)piperazine-1-carboxylate], the Emax worked out at 74% in test [1] (setting [3]) and 48% in test [2] (setting [3]). Besides, the EC50 in test [1] was determined as 4.27 µM; in test [2], 25.9 µM.
The matching figures for `CN(C)C(=O)c1ccc(-c2cnc(N3CCN(C(=O)[C@H](O)C(F)(F)F)CC3)c(C#N)c2)cc1Cl` [Example 2-11, 2-chloro-4-(5-cyano-6-{4-[(2S)-3,3,3-trifluoro-2-hydroxypropanoyl]piperazin-1-yl}pyridin-3-yl)-N,N-dimethylbenzamide]: 77%, 30%, 1.06 µM and 27.9 µM.
Regarding `CC(C)C(O)(C(=O)N1CCN(c2ncc(-c3cc(Cl)c(C(=O)N(C)C)c(Cl)c3)cc2C#N)CC1)C(F)(F)F` (single isomer, unassigned) [Example 7-6, 2,6-dichloro-4-(5-cyano-6-{4-[2-hydroxy-3-methyl-2-(trifluoromethyl)butanoyl]piperazin-1-yl}pyridin-3-yl)-N,N-dimethylbenzamide], the “LXR beta activity at max dose (%) (Emax)” value in test [1] (setting [3]) turned out to be 79%. Besides, the EC50 in test [1] was found to be 0.034 µM; in test [2], 0.76 µM. Also, in test [2] (setting [3]), the “LXR alpha activity at max dose (%) (Emax)” value turned out to be 28%.
Take `CN(C)C(=O)c1ccc(-c2ccc(N3CCN(C(=O)OC(C)(C)C)CC3)c(C#N)c2)cc1Cl` [Example 8-15, tert-butyl 4-[3′-chloro-3-cyano-4′-(dimethylcarbamoyl)biphenyl-4-yl]piperazine-1-carboxylate]: the Emax in test [1] (setting [3]) turned out to be 81%; in test [2] (setting [3]) it was 54%. Besides, the values for the EC50 in test [1] and in test [2] were 0.177 µM and 3.89 µM, respectively.
The matching figures for `CO[C@@](C(=O)N1CCN(c2ncc(-c3ccc(C(=O)N(C)C)c(Cl)c3)cc2C#N)CC1)(c1ccccc1)C(F)(F)F` [Example 2-35, 2-chloro-4-(5-cyano-6-{4-[(2R)-3,3,3-trifluoro-2-methoxy-2-phenylpropanoyl]piperazin-1-yl}pyridin-3-yl)-N,N-dimethylbenzamide]: 70%, 62%, 0.075 µM and 54.1 µM.
On the same counts, the results for `CN(C)C(=O)c1ccc(-c2cnc(N3CCN(S(=O)(=O)c4ccccc4OC(F)(F)F)CC3)c(C#N)c2)cc1Cl` [Example 1-14, 2-chloro-4-[5-cyano-6-(4-{[2-(trifluoromethoxy)phenyl]sulfonyl}piperazin-1-yl)pyridin-3-yl]-N,N-dimethylbenzamide] are 99%, 37%, 0.02 µM and 1.05 µM.
Turning to `CN(CCc1ccncc1)C(=O)c1ccc(-c2cnc(N3CCN(C(=O)OC(C)(C)C)CC3)c(C#N)c2)cc1Cl` [Example 5-27, tert-butyl 4-(5-{3-chloro-4-[methyl(2-pyridin-4-ylethyl)carbamoyl]phenyl}-3-cyanopyridin-2-yl)piperazine-1-carboxylate], the Emax was 76% in test [1] (setting [3]) and 17% in test [2] (setting [3]). For the same compound, in test [1], the EC50 was 0.705 µM. In test [2], the “LXR alpha IP (nM)” value is “No IP”.
Regarding `CCCC(O)(C(=O)N1CCN(c2ncc(-c3ccc(C(=O)N(C)C)c(Cl)c3)cc2C#N)CC1)C(F)(F)F` (centres unmarked) [Example 2-25, 2-chloro-4-(5-cyano-6-{4-[2-hydroxy-2-(trifluoromethyl)pentanoyl]piperazin-1-yl}pyridin-3-yl)-N,N-dimethylbenzamide], the Emax is 100% in test [1] (setting [3]) and 53% in test [2] (setting [3]). Besides, the EC50 in test [1] worked out at 0.094 µM; in test [2] it was 4.15 µM.
On the same counts, the results for `CNC(=O)c1ccc(-c2cnc(N3CCN(C(=O)C(C)(C)C)CC3)c(C#N)c2)cc1Cl` [Example 6-2, 2-chloro-4-{5-cyano-6-[4-(2,2-dimethylpropanoyl)piperazin-1-yl]pyridin-3-yl}-N-methylbenzamide] are 98%, 34%, 0.329 µM and 11.3 µM.
With `CN(C)C(=O)c1ccc(-c2cnc(N3CCN(S(=O)(=O)Cc4ccccc4Cl)CC3)c(C#N)c2)cc1Cl` [Example 1-12, 2-chloro-4-(6-{4-[(2-chlorobenzyl)sulfonyl]piperazin-1-yl}-5-cyanopyridin-3-yl)-N,N-dimethylbenzamide], the Emax in test [1] (setting [3]) came to 97%; in test [2] (setting [3]), 27%. The EC50 was 0.028 µM in test [1] and 7.41 µM in test [2].
`CN(C)C(=O)c1ccc(-c2ccc(N3CCN(C(=O)c4ccccc4C#N)CC3)cc2)cc1Cl` [Example 4-2, 3-chloro-4′-{4-[(2-cyanophenyl)carbonyl]piperazin-1-yl}-N,N-dimethylbiphenyl-4-carboxamide]: the Emax in test [1] (setting [3]) amounted to 93%; in test [2] (setting [3]), 24%. Besides, in test [1], the EC50 was found to be 2.33 µM. Further, the “LXR alpha IP (nM)” value in test [2] was “No IP”.
Regarding `CN(C)C(=O)c1ccc(-c2cnc(N3CCN(S(=O)(=O)c4c(Cl)cccc4Cl)CC3)c(C#N)c2)cc1Cl` [Example 1-1, 2-chloro-4-(5-cyano-6-{4-[(2,6-dichlorophenyl)sulfonyl]piperazin-1-yl}pyridin-3-yl)-N,N-dimethylbenzamide], the Emax in test [1] (setting [3]) was 124%; in test [2] (setting [3]) it was 55%. Moreover, the EC50 in test [1] amounted to 0.007 µM; in test [2], 0.69 µM.
Regarding `CN(C)C(=O)c1ccc(-c2cnc(N3CCN(C(=O)Cc4cn5ccsc5n4)CC3)c(C#N)c2)cc1Cl` [Example 2-24, 2-chloro-4-{5-cyano-6-[4-(imidazo[2,1-b][1,3]thiazol-6-ylacetyl)piperazin-1-yl]pyridin-3-yl}-N,N-dimethylbenzamide], the results for the Emax in test [1] (setting [3]) and in test [2] (setting [3]) were 104% and 42%, respectively. Also, the values for the EC50 in test [1] and in test [2] were 0.463 µM and 29.6 µM, respectively.
The matching figures for `CN(C)C(=O)c1ccc(-c2cnc(N3CCN(C(=O)OCc4cccc(Cl)c4)CC3)c(C#N)c2)cc1Cl` [Example 3-10, 3-chlorobenzyl 4-{5-[3-chloro-4-(dimethylcarbamoyl)phenyl]-3-cyanopyridin-2-yl}piperazine-1-carboxylate]: 75%, 79%, 0.068 µM and 23.5 µM.
In the case of `CN(C)C(=O)c1ccc(-c2ccc(N3CCN(C(=O)c4c(F)cccc4F)CC3)c(Cl)c2)cc1Cl` [Example 4-1, 3,3′-dichloro-4′-{4-[(2,6-difluorophenyl)carbonyl]piperazin-1-yl}-N,N-dimethylbiphenyl-4-carboxamide], the Emax in test [1] (setting [3]) was 90%. In addition, the EC50 in test [1] was 0.833 µM.
